Laboratory results published in ChEMBL document CHEMBL5465560, “Selectivity Literature for EUbOPEN Chemogenomic Library” (2024).
Blank lines part the entries; values can stand above or below the compound they belong to.

What was measured:
[1] = target: Serine/threonine-protein kinase pim-2 (Homo sapiens, UniProt Q9P1W9); experiment: Selectivity interaction (KinomeScan (DiscoverX)) EUB0000655a PIM2; settings: at 10 µM
[2] = target: High affinity nerve growth factor receptor (Homo sapiens, UniProt P04629); experiment: Selectivity interaction (KinomeScan (DiscoverX)) EUB0001079a NTRK1; settings: at 1 µM
[3] = target: Platelet-derived growth factor receptor beta (Homo sapiens, UniProt P09619); experiment: Selectivity interaction (KinomeScan (DiscoverX)) EUB0000618a PDGFRB; settings: at 10 µM
[4] = target: Proto-oncogene tyrosine-protein kinase Src (Homo sapiens, UniProt P12931); experiment: Selectivity interaction (SelectScreen profiling (Invitrogen)) EUB0000607a SRC; settings: at 2 µM
[5] = target: Cyclin-dependent kinase-like 3 (Homo sapiens) (UniProt Q8IVW4); experiment: Selectivity interaction (KinomeScan (DiscoverX)) EUB0000607a CDKL3; settings: at 10 µM
[6] = target: T1, Interleukin-1 receptor-associated kinase 4 (Homo sapiens) (UniProt Q9NWZ3); experiment: Selectivity interaction (ActivX KiNativ screen (ex vivo kinase selectivity in human PBMCs)) EUB0001619a IRAK4; assay type: cell-based; settings: PBMC, at 1 µM
T1 sequence (whole entry): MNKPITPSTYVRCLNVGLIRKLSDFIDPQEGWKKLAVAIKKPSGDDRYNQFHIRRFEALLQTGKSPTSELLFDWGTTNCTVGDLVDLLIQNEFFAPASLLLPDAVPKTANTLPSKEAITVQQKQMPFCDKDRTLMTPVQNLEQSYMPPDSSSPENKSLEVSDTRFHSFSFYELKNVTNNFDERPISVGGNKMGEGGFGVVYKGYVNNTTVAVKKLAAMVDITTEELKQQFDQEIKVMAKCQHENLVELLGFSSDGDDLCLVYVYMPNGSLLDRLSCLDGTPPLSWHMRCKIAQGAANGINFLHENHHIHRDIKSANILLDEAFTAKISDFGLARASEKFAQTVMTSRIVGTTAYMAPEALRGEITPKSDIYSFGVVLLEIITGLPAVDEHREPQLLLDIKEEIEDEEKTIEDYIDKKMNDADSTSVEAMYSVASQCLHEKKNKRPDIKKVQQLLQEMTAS

[7] = target: T2, Phosphatidylinositol 5-phosphate 4-kinase type-2 alpha (Homo sapiens) (UniProt P48426); experiment: Selectivity interaction (ActivX KiNativ screen (ex vivo kinase selectivity in human PBMCs)) EUB0001619a PIP4K2A; assay type: cell-based; settings: PBMC, at 1 µM
T2 sequence (whole entry): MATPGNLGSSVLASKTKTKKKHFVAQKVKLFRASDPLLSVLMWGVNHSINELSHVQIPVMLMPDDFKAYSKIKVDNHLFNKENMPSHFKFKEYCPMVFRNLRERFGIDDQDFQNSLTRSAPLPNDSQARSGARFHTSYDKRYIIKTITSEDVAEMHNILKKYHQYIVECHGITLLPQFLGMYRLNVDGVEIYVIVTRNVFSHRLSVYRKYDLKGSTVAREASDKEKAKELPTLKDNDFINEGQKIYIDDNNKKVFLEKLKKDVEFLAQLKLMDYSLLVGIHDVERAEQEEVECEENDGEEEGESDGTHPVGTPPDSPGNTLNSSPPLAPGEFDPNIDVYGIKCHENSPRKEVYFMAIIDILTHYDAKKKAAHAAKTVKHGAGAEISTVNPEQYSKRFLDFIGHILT

[8] = target: Serine/threonine-protein kinase pim-3 (Homo sapiens) (UniProt Q86V86); experiment: Selectivity interaction (KinomeScan (DiscoverX)) EUB0001619a PIM3; settings: at 1 µM
[9] = target: Proto-oncogene tyrosine-protein kinase ROS (Homo sapiens) (UniProt P08922); experiment: Selectivity interaction (Upstate Kinase Profiler service (Millipore)) EUB0000056c ROS1; settings: at 1 µM
[10] = target: Histone-lysine N-methyltransferase 2A (Homo sapiens) (UniProt Q03164); settings: at 10 µM
[11] = target: T3, Receptor-interacting serine/threonine-protein kinase 1 (Homo sapiens) (UniProt Q13546); settings: at 10 µM
T3 sequence (whole entry): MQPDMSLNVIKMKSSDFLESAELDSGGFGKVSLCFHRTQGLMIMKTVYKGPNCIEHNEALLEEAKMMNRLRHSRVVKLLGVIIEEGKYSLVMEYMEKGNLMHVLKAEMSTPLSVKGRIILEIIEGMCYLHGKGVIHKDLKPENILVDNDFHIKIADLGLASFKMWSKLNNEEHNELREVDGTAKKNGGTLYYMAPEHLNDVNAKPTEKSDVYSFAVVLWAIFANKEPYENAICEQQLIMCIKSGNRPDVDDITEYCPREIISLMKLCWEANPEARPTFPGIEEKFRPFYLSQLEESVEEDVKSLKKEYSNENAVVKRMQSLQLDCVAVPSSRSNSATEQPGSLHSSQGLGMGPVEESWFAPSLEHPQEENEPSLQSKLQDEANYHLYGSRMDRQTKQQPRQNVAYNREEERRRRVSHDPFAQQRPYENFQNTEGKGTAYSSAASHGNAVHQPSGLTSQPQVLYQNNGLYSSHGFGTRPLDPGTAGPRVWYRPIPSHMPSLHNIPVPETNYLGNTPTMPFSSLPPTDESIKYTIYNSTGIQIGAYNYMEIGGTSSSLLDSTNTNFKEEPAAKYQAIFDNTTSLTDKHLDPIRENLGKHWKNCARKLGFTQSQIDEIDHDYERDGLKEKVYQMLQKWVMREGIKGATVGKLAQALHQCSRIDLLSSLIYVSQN

[12] = target: Serine/threonine-protein kinase tousled-like 2 (Homo sapiens) (UniProt Q86UE8); experiment: Selectivity interaction (ActivX KiNativ screen (kinase selectivity in THP-1 cell lysates)) EUB0000639a TLK2; assay type: subcellular; settings: lysate, at 5 µM
[13] = target: Phosphorylase b kinase gamma catalytic chain, skeletal muscle/heart isoform (Homo sapiens) (UniProt Q16816); experiment: Selectivity interaction (ProQinase) EUB0000171b PHKG1
[14] = target: T4, Serine/threonine-protein kinase 3 (Homo sapiens) (UniProt Q13188); experiment: Selectivity interaction (KinomeScan (DiscoverX)) EUB0000666a STK3; settings: at 10 µM
T4 sequence (whole entry): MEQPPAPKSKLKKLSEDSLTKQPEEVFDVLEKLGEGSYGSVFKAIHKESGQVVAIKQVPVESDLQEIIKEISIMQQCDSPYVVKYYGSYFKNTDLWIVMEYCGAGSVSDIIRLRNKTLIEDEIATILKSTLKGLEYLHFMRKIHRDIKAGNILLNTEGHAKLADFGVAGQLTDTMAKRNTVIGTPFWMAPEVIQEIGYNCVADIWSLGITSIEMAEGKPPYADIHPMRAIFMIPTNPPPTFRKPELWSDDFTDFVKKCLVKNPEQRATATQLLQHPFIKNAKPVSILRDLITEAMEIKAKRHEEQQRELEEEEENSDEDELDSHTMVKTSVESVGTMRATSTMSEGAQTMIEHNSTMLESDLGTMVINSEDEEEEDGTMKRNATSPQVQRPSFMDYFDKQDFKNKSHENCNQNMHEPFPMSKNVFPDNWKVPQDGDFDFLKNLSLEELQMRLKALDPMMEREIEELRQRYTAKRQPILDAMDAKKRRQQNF

Phosphorylase b kinase gamma catalytic chain, skeletal muscle/heart isoform (Homo sapiens), sequence (Q16816 whole entry, looked up, canonical isoform): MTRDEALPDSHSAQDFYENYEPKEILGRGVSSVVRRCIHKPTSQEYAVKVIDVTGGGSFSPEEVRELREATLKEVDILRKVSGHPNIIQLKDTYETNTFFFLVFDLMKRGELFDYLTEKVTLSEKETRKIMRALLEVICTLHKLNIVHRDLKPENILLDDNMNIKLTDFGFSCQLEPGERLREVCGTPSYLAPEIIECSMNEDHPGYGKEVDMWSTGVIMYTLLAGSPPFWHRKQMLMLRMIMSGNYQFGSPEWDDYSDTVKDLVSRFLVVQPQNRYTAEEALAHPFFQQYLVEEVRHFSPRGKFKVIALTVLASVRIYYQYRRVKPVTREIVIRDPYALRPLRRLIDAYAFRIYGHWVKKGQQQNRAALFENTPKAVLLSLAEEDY
Platelet-derived growth factor receptor beta, sequence (P09619 whole entry): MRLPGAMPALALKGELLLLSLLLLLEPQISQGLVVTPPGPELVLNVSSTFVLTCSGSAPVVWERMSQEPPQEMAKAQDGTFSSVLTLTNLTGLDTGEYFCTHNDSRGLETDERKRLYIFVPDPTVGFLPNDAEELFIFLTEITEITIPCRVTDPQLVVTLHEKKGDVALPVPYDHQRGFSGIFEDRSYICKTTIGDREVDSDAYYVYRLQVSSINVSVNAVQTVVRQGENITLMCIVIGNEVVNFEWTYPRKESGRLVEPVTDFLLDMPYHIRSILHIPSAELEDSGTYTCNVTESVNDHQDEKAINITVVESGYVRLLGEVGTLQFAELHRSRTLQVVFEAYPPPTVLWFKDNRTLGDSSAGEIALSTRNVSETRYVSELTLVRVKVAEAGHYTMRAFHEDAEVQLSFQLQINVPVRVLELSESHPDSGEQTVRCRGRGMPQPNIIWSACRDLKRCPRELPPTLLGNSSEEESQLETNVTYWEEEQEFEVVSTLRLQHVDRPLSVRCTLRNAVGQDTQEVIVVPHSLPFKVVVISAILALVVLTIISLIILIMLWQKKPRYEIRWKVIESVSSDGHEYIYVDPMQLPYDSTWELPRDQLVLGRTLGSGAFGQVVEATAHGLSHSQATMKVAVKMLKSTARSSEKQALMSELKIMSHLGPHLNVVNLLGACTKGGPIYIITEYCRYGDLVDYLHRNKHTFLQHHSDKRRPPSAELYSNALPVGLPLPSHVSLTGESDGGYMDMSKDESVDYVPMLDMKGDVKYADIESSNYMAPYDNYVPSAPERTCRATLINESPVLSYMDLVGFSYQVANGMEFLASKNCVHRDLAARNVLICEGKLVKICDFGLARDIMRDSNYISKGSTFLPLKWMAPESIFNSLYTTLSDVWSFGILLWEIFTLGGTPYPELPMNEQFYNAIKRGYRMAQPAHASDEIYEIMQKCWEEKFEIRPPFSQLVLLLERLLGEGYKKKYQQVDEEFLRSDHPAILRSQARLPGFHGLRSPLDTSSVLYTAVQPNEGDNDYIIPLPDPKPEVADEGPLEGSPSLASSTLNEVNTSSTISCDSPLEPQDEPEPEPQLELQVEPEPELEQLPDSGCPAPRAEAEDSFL
Cyclin-dependent kinase-like 3 (Homo sapiens), sequence (Q8IVW4 whole entry, looked up): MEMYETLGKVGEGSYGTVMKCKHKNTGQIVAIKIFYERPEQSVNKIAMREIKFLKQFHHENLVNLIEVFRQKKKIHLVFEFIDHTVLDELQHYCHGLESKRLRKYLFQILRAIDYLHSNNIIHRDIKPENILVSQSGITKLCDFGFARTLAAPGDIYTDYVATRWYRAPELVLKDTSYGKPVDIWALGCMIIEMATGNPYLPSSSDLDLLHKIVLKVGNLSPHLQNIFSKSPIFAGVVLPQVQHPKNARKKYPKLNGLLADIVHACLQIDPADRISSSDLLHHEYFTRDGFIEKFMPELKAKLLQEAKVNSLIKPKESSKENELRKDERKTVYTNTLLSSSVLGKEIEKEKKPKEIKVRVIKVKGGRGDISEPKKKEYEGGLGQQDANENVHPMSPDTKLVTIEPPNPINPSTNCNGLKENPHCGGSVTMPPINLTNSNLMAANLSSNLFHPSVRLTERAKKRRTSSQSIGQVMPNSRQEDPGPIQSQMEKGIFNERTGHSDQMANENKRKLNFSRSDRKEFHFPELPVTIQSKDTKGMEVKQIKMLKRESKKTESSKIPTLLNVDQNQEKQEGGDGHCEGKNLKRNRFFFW
Proto-oncogene tyrosine-protein kinase Src, sequence (P12931 2-536 limits assumed): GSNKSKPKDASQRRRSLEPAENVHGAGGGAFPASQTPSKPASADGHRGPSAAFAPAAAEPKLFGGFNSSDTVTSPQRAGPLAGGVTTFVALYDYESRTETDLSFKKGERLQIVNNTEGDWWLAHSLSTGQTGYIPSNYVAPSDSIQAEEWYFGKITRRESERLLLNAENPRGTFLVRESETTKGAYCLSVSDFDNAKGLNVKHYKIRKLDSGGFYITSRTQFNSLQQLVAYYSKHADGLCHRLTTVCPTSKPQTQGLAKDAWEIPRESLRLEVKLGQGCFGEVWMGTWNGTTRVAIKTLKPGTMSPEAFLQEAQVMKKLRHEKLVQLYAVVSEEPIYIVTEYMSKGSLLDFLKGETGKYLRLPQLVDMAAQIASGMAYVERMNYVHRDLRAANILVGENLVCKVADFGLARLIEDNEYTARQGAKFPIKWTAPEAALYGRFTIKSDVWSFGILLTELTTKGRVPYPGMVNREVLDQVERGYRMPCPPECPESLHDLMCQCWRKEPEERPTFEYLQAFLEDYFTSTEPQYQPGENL
Serine/threonine-protein kinase tousled-like 2 (Homo sapiens), sequence (Q86UE8 whole entry, looked up, canonical isoform): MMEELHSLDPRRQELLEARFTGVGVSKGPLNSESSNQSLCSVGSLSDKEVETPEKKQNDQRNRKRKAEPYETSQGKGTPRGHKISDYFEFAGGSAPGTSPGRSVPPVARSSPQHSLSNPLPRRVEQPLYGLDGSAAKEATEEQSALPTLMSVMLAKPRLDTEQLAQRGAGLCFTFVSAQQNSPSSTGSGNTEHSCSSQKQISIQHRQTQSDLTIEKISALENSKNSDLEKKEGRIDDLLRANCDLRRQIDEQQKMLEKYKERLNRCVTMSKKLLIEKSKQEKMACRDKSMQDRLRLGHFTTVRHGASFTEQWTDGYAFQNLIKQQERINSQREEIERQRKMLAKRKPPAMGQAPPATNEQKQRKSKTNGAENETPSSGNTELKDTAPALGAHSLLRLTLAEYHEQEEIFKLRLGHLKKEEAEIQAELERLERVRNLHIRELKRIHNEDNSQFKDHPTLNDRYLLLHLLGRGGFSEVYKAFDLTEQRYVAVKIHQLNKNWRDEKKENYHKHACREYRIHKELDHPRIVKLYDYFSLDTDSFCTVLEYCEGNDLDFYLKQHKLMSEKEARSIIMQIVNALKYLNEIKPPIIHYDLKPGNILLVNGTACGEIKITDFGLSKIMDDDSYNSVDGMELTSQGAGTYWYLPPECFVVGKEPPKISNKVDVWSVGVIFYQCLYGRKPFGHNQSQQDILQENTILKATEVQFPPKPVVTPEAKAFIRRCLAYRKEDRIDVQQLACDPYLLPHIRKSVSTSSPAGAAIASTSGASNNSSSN
Serine/threonine-protein kinase pim-2, sequence (Q9P1W9 whole entry, looked up): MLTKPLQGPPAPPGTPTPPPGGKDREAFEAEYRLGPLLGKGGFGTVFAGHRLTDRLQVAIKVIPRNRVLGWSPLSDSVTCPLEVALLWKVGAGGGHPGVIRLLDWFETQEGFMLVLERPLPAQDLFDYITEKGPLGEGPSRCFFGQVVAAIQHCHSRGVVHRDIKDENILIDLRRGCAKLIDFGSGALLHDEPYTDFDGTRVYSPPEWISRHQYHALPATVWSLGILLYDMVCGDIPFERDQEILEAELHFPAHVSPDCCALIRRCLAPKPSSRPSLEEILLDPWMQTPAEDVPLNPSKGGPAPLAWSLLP
High affinity nerve growth factor receptor, sequence (P04629 33-796 limits assumed): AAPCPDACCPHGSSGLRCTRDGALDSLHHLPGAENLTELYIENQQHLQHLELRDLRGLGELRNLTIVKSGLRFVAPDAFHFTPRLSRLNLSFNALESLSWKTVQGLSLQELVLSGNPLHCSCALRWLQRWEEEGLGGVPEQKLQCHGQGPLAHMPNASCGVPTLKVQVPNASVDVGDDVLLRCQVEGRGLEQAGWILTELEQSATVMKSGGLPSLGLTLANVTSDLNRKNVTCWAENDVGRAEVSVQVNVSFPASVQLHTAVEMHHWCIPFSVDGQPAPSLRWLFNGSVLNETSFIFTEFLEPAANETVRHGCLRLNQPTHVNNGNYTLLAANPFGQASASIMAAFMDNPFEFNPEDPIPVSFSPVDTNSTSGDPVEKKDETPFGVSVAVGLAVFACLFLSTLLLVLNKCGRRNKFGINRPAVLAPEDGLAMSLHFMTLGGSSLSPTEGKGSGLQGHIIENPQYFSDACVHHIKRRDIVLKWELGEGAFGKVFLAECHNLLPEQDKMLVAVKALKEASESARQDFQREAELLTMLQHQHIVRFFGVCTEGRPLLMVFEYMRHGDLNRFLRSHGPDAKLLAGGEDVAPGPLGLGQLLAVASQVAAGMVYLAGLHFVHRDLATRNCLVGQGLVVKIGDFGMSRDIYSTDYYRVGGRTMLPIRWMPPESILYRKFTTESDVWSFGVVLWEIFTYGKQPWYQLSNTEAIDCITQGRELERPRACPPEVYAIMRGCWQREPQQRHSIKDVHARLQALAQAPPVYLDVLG

SMILES: CN(C)CCOc1ccc(-c2nc(-c3ccncc3)c(-c3ccc4c(c3)CC/C4=N\O)[nH]2)cc1
% of control [1]: 78%

SMILES: Nc1cnc(N2CCc3cc(S(=O)(=O)Nc4c(F)cc(Cl)cc4F)cc(N4CCCC4=O)c32)nc1 [TP-020n]
% of control [2]: 100%

SMILES: O[C@H]1CC[C@H](Nc2ncc3nc(Nc4c(F)cc(F)cc4F)n([C@H]4CCOC4)c3n2)CC1
% of control [3]: 64%

SMILES: CNC(=O)Nc1ccc(-c2nc(N3CC4CCC(C3)O4)c3cnn(C4CCC5(CC4)OCCO5)c3n2)cc1
% of inhibition [4]: 7% | % of control [5]: 95%

SMILES: N#Cc1cccc(-c2c[nH]c3ncnc(N4CCOCC4)c23)c1
% of inhibition [6]: 16% | % of inhibition [7]: 2% | % of control [8]: 100%

% of inhibition [9]: -15%
SMILES: Cc1ccc(-c2ccc3c(ccc4sc5c(c43)NC[C@@H](C)NC5=O)n2)cn1

% activity [10]: > 90%
SMILES: CNCCN1CCC(c2cc(CN(C)C(=O)c3cccc(Oc4ccccc4)c3)ccn2)CC1

SMILES: Cc1cc([C@@H](C)Nc2ccccc2C(=O)O)c2nc(N3CCOCC3)cc(=O)n2c1 [AZD-6482]
% of control [11]: 100%

% of inhibition [12]: 80.5%
SMILES: CC[C@@H]1[C@H](F)C(=O)N[C@@H]1COc1nccc2cc(C(N)=O)c(OC)cc12 [ZIMLOVISERTIB]

% of control ([13]; at 1 µM): 80% | % of control ([13]; at 5 µM): 44%
SMILES: C=CC(=O)Nc1cccc(C(=O)Nc2ccc(Nc3cc(-c4[nH]c(SC)nc4C)ccn3)cc2)c1

SMILES: O=C(NOC[C@H](O)CO)c1ccc(F)c(F)c1Nc1ccc(I)cc1F
% of control [14]: 90%
